In patent publication EP4635969A1, “NOVEL GLUCOCORTICOID, METHOD FOR PREPARING SAME, AND USE THEREOF” (Tianjin Pharmaceutical Biotechnology Co., Ltd., priority 2022, dated 2024):
pEC50: −log10 of the molar value. Read-outs that look alike come from different tables or passages of the source.

Tests used:
asthma model mice = experiment: Anti-asthma pharmacodynamic experiment: airway hyperresponsiveness (Penh) after methacholine challenge; format: in vivo, female BALB/c mice; details: for Penh values in mice, Methacholine concentration (mg/ml) 0 / Penh values in mice, Methacholine concentration (mg/ml) 6.25 / Penh values in mice, Methacholine concentration (mg/ml) 12.5: 0.3 mg/mL, 50 µL intratracheally once daily for 3 days; for Penh values in mice, Methacholine concentration (mg/ml) 0: methacholine 0 mg/ml; for Penh values in mice, Methacholine concentration (mg/ml) 6.25: methacholine 6.25 mg/ml; for Penh values in mice, Methacholine concentration (mg/ml) 12.5: methacholine 12.5 mg/ml
[1] = tested on: inflammatory cytokines IL-6 and IL-12; experiment: Anti-asthma pharmacodynamic experiment: inflammatory cytokines in bronchoalveolar lavage fluid (ELISA); format: in vivo, female BALB/c mice; details: for IL-6 / IL-12: bronchoalveolar lavage fluid, 0.3 mg/mL, 50 µL intratracheally once daily for 3 days
Method: Pharmacological Example 4: Pharmacodynamic Experiment on Anti-Asthma
The suspensions were stored at room temperature protected from light until use.
Positive control drug: Budesonide Suspension for Inhalation (specification: 2 mL: 1 mg; AstraZeneca Inc.; Lot No. : 327392) was diluted with injection-grade sodium chloride solution to 0.3 mg/ml as the positive control drug, and stored at room temperature protected from light until use.
Sixty female BALB/c mice underwent a one-week adaptive feeding period. Ten mice were randomly selected as the blank control group, while 50 mice were selected to establish asthma models.
From days 21 to 23 after sensitization, the mice in the model group and drug administration group were exposed to a 30-minute aerosol challenge with 5% OVA, while the mice in the blank control group were exposed to normal saline aerosol for the same duration.
At the end of airway hyperresponsiveness testing in mice, the mice were euthanized by cervical dislocation and fixed on a dissection tray. The abdomens and thoracic cavities of the mice were opened, and the skin and excess tissues of the neck were excised to expose the trachea of the mice. A small incision was made transversely on the trachea with a small scissors. A pre-treated 1 mL syringe needle was inserted and fastened with surgical thread. A 1 mL syringe was used to slowly inject 0.5 mL of pre-chilled phosphate-buffered saline (PBS) into the lungs of the mice, followed by slow aspiration. Each mouse was lavaged once, and a total of approximately 0.4 ml of lavage fluid was collected. The bronchoalveolar lavage fluid was centrifuged at 3000 rpm for 5 min. After centrifugation, the supernatant was aliquoted, and the levels of inflammatory cytokines IL-6 and IL-12 in the bronchoalveolar lavage fluid were determined using ELISA kits.
Statistical analysis was performed using SPSS software. Measurement data were expressed as mean ± standard deviation. One-way ANOVA was used for intergroup comparisons. For data with homogeneous variance, LSD test was used; for data with heterogeneous variance, Dunnett-t test was used. A value of P < 0.05 was considered statistically significant.

[2] = biological target: T1, progesterone receptor (PR) (Homo sapiens, UniProt P06401); experiment: Assay for agonist activity on progesterone receptor (luciferase reporter, HEK293 cells transfected with pBIND-PR plasmid); format: cell-based; details: for EC50: EC50 of agonist activity, HEK293 reporter cells, top concentration 50 µM, read-out: Nuclear receptor enzyme activity (nM) PR; for Target selectivity PR/GR: ratio of EC50 values
T1 sequence (P06401 678-933): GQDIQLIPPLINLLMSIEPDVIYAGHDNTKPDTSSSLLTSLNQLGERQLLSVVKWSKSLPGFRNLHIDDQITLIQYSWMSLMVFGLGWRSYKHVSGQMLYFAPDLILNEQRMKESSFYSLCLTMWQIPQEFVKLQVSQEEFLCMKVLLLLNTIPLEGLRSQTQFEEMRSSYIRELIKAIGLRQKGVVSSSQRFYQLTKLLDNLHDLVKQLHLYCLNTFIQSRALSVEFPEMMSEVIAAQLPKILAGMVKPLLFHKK
Method: (§1) Pharmacological Example 2: Assay for Agonist Activity on Mineralocorticoid Receptor (MR) and Progesterone Receptor (PR)
(§2) Test compound stock solutions: The test compounds (compounds 4, 5, 7, 8, 9, 11, 13, 16, 17, 18, 22, 23, 24, 34, 35, 36, 38, 41, 45, 47, 53, 55, and 59) were accurately weighed, dissolved in DMSO to prepare stock solutions at a concentration of 20 mM, and stored at -20 °C.
(§3) The test compounds were subjected to a 4-fold serial dilution starting from an initial concentration of 50 µ M, generating a 12-point concentration gradient with duplicate wells for each concentration. The blank control consisted of 0.1% DMSO.
(§4) The HEK293 stable cell lines […] transfected with mineralocorticoid receptor (MR) and progesterone receptor (PR) (ICE Bioscience, Lot No. TYP-20220819, TPJ-20220812) were cultured in Dulbecco's Modified Eagle Medium (DMEM) supplemented with 10% fetal bovine serum (FBS) and 200 µ g/ml Hygromycin B in a cell incubator containing 5% CO2 at 37 °C. The spent medium was aspirated, and the cells were washed once with phosphate-buffered saline (PBS). Then, 1 mL of TrypLE™ Express solution was added, and the cells were incubated at 37 °C for approximately 2 min. When the cells detached from the bottom of the cell culture dish, approximately 5 mL of pre-warmed complete medium at 37 °C was added. The cell suspension was gently pipetted with a pipette to dissociate clumped cells. The cell suspension was transferred to a sterile centrifuge tube and centrifuged at 1000 rpm for 5 min to pellet the cells for experiments or subculture..
(§5) HEK293 cells were digested and seeded into 6-cm culture dishes. The pBIND-MR and pBIND-PR plasmids were separately transfected into the HEK293 cells using a transfection reagent, resulting in HEK293 cells successfully transfected with the pBIND-MR and pBIND-PR plasmids, respectively. The cells were resuspended in phenol red-free DMEM medium containing 5% charcoal-stripped serum, counted, and then seeded into 96-well plates. The test compounds were added, and the plates were then incubated in an incubator. The luminescence signal values were measured using a multimode microplate reader following the instructions of the luciferase assay kit. The EC50 values of each test compound were calculated using the nonlinear fitting formula with GraphPad Prism 8.0 software.

[3] = biological target: T2, mineralocorticoid receptor (MR) (Homo sapiens, UniProt P08235); experiment: Assay for agonist activity on mineralocorticoid receptor (luciferase reporter, HEK293 cells transfected with pBIND-MR plasmid); format: cell-based; details: for EC50: EC50 of agonist activity, HEK293 reporter cells, top concentration 50 µM, read-out: Nuclear receptor enzyme activity (nM) MR; for Target selectivity MR/GR: ratio of EC50 values
T2 sequence (P08235 726-984): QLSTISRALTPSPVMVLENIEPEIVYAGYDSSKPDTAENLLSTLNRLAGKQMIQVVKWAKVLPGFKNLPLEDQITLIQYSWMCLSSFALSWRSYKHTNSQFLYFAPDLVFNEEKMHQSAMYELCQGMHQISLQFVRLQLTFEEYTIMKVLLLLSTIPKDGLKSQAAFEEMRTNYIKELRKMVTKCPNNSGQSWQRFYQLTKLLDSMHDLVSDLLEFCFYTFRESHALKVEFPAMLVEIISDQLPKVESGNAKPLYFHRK
Method: as §1, §2, §3, §4, §5

[4] = biological target: T3, glucocorticoid receptor (GR) (Homo sapiens, UniProt P04150); experiment: Assay for agonist activity on glucocorticoid receptor (luciferase reporter, HEK293 cells transfected with pBIND-GR plasmid); format: cell-based; details: for EC50: EC50 of agonist activity, HEK293 reporter cells, read-out: Nuclear receptor enzyme activity (nM) GR; for pEC50: HEK293 cells transfected with pBIND-GR, luciferase signal, read-out: GR agonist EC50
T3 sequence (P04150 521-777): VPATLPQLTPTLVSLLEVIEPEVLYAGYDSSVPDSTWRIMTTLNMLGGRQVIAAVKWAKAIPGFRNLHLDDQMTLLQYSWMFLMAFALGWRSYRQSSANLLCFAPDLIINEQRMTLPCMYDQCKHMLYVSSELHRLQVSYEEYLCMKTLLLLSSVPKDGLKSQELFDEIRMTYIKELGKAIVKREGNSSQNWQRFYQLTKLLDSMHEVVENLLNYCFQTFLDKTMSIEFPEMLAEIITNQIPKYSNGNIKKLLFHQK
Procedure, shortened: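 HEK293 cells transfected with pBIND-GR, seeded in phenol red-free DMEM with 5% charcoal-stripped serum, then exposed to compounds in a 10-point, 4-fold dilution series from 10 µM, in duplicate. Luciferase luminescence read after incubation; EC50 from nonlinear fit. Vehicle blank: 0.1% DMSO.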

[5] = tested on: intraocular pressure of guinea pigs; experiment: Adverse reactions of continuous ocular administration: intraocular pressure; format: in vivo
Method: Pharmacological Example 9: Experiment on Adverse Reactions of Continuous Ocular Administration in Guinea Pigs
Test samples: Compounds 17 and 23 were prepared as 5 mg/5 mL ophthalmic suspensions with reference to the formulation of Fluorometholone Eye Drops, and stored at room temperature protected from light until use.
Positive control drug: Fluorometholone Eye Drops (specification: 5 mL/5 mg; Santen Pharmaceutical (CHINA) Co., Ltd.; Lot No.: 1FM6545), Loteprednol Etabonate Eye Drops (specification 0.5% (5 mg/mL); Shandong Bausch & Lomb Freda Pharmaceutical Co., Ltd; Lot No. 386521), stored at room temperature protected from light until use.
Animals: 50 guinea pigs, conventional grade, with an equal number of males and females, weighing 300-350 g..
Animal grouping: After 5 days of adaptive feeding, the guinea pigs were randomly divided into 5 groups based on body weight. Group 1 was the blank control group, and 50 µL of normal saline was dropped into the eyes (bilateral) of the guinea pigs. Groups 2 to 5 were the fluorometholone group, loteprednol group, compound 17 group, and compound 23 group, respectively, and the corresponding drugs were dropped into the eyes (bilateral) of the guinea pigs. Table 19. Animal grouping and drug administration dosages for the experiment on adverse reactions of continuous ocular administration in guinea pigs
Intraocular pressure measurement time: The intraocular pressure of animals in each group was measured before administration and on days 7, 14, 21, and 28 post-administration.

SMILES | EC50 [2] | EC50 [3] | EC50 [4] | pEC50 [4] | Target selectivity PR/GR [2] | Target selectivity MR/GR [3] | also measured
CCCC1O[C@@H]2C[C@H]3[C@@H]4CCC5=CC(=O)C=C[C@]5(C)[C@H]4[C@@H](O)C[C@]3(C)[C@]2(C(=O)CO)O1 (some centres unmarked) [Budesonide, reference compound] |  |  |  |  |  |  | Penh values in mice, Methacholine concentration (mg/ml) 0 (asthma model mice): 1.12 ± 0.30; Penh values in mice, Methacholine concentration (mg/ml) 6.25 (asthma model mice): 1.65 ± 0.29; Penh values in mice, Methacholine concentration (mg/ml) 12.5 (asthma model mice): 2.14 ± 0.38; IL-6 [1]: 21.5 ± 6.8 pg/mL; IL-12 [1]: 17.5 ± 4.9 pg/mL
C[C@]12C=CC(=O)C=C1[C@@H](F)C[C@H]1[C@@H]3C[C@H]4OC(c5ccc(CSC6COC(=O)C6)cc5)O[C@@]4(C(=O)CO)[C@@]3(C)C[C@H](O)[C@@]12F (stereo partly drawn) [Compound 11, (2S,6aS,6bR,7S,8aS,8bS,11aR,12aS,12bS)-2,6b-Difluoro-7-hydroxy-8b-(2-hydroxyacetyl)-6a,8a-dimethyl-10-(4-(((5-oxotetrahydrofuran-3-yl)thio)methyl)phenyl)-1,2,6a,6b,7,8,8a,8b,11a,12,12a, 12b-dodecahydro-4H-naphtho[2',1':4,5]indeno[1,2-d][1,3]dioxol-4-one] | > 50000 nM | > 50000 nM |  |  |  |  | Penh values in mice, Methacholine concentration (mg/ml) 0 (asthma model mice): 1.08 ± 0.18; Penh values in mice, Methacholine concentration (mg/ml) 6.25 (asthma model mice): 1.45 ± 0.31; Penh values in mice, Methacholine concentration (mg/ml) 12.5 (asthma model mice): 1.92 ± 0.34; Effects on airway hyperresponsiveness (Penh values) in mice (asthma model mice; compared with the model group): significantly decreased the Penh values in mice; IL-6 [1]: 16.3 ± 7.9 pg/mL; IL-12 [1]: 11.1 ± 3.7 pg/mL; Effects on inflammatory cytokines in bronchoalveolar lavage fluid of mice ([1]; compared with the model group): extremely significantly decreased the levels of IL-6 and IL-12 in mice
C[C@]12C=CC(=O)C=C1[C@@H](F)C[C@H]1[C@@H]3C[C@H]4OC(c5ccc(CNC6CCOC6=O)cc5)O[C@@]4(C(=O)CO)[C@@]3(C)C[C@H](O)[C@@]12F (stereo partly drawn) [Compound 9, (2S,6aS,6bR,7S,8aS,8bS,11aR,12aS,12bS)-2,6b-Difluoro-7-hydroxy-8b-(2-hydroxyacetyl)-6a,8a-dimethyl-10-(4-(((2-oxotetrahydrofuran-3-yl)amino)methyl)phenyl)-1,2,6a,6b,7,8,8a,8b,11a,12,12 a,12b-dodecahydro-4H-naphtho[2',1':4,5]indeno[1,2-d][1,3]dioxol-4-one] | > 50000 nM | > 50000 nM | 3.27 nM | 8.49 | > 1.5×10^4 | > 1.5×10^4 | 
C[C@]12C=CC(=O)C=C1[C@@H](F)C[C@H]1[C@@H]3C[C@H]4OC(c5ccc(COC6CCOC6=O)cc5F)O[C@@]4(C(=O)CO)[C@@]3(C)C[C@H](O)[C@@]12F (stereo partly drawn) [Compound 7, (2S,6aS,6bR,7S,8aS,8bS,11aR,12aS,12bS)-2,6b-Difluoro-10-(2-fluoro-4-(((2-oxotetrahydrofuran-3-yl)oxy)methyl)phenyl)-7-hydroxy-8b-(2-hydroxyacetyl)-6a,8a-dimethyl-1,2,6a,6b,7,8,8a,8b,11a, 12,12a,12b-dodecahydro-4H-naphtho[2',1':4,5]indeno[1,2-d][1,3]dioxol-4-one] | > 50000 nM | > 50000 nM | 1.21 nM | 8.92 | > 4.1×10^4 | > 4.1×10^4 | 
C[C@]12C=CC(=O)C=C1CC[C@H]1[C@@H]3C[C@H]4OC(c5cnc(CSC6CCOC6=O)nc5)O[C@@]4(C(=O)CO)[C@@]3(C)C[C@H](O)[C@@]12F (stereo partly drawn) [Compound 53, (6aS,6bR,7S,8aS,8bS,11aR,12aS,12bS)-6b-Fluoro-7-hydroxy-8b-(2-hydroxyacetyl)-6a,8a-dimethyl-10-(2-(((2-oxotetrahydrofuran-3-yl)thio)methyl)pyrimidin-5-yl)-1,2,6a,6b,7,8,8a,8b,11a,12,12a, 12b-dodecahydro-4H-naphtho[2',1':4,5]indeno[1,2-d][1,3]dioxol-4-one] | > 50000 nM | > 50000 nM | 8.31 nM | 8.08 | 6017 | 6017 | 
CCOC(=O)O[C@]1(C(=O)OCCl)CC[C@H]2[C@@H]3CCC4=CC(=O)C=C[C@]4(C)[C@H]3[C@@H](O)C[C@@]21C [Loteprednol, Loteprednol Etabonate, reference compound] |  |  |  |  |  |  | intraocular pressure after continuous ocular administration [5]: intraocular pressure elevation was detected on day 7; Intraocular pressure of guinea pigs (mmHg) D0 ([5]; D0, before administration, 50 µL/eye (compounds and fluorometholone 1 mg/mL, loteprednol 5 mg/mL)): 14.0 ± 1.8 mmHg; Intraocular pressure of guinea pigs (mmHg) D7 ([5]; D7, 50 µL/eye (compounds and fluorometholone 1 mg/mL, loteprednol 5 mg/mL)): 19.0 ± 3.5 mmHg; Intraocular pressure of guinea pigs (mmHg) D14 ([5]; D14, 50 µL/eye (compounds and fluorometholone 1 mg/mL, loteprednol 5 mg/mL)): 18.5 ± 1.5 mmHg; Intraocular pressure of guinea pigs (mmHg) D21 ([5]; D21, 50 µL/eye (compounds and fluorometholone 1 mg/mL, loteprednol 5 mg/mL)): 18.5 ± 0.7 mmHg; Intraocular pressure of guinea pigs (mmHg) D28 ([5]; D28, 50 µL/eye (compounds and fluorometholone 1 mg/mL, loteprednol 5 mg/mL)): 19.5 ± 0.6 mmHg
C[C@]12C=CC(=O)C=C1CC[C@H]1[C@@H]3C[C@H]4OC(c5ccc(CNC6CCOC6=O)cc5)O[C@@]4(C(=O)CO)[C@@]3(C)C[C@H](O)[C@@]12Cl (stereo partly drawn) [Compound 24, (6aS,6bR,7S,8aS,8bS,11aR,12aS,12bS)-6b-Chloro-7-hydroxy-8b-(2-hydroxyacetyl)-6a,8a-dimethyl-10-(4-(((2-oxotetrahydrofuran-3-yl)amino)methyl)phenyl)-1,2,6a,6b,7,8,8a,8b,11a,12,12a,12b-dodecahydro-4H-naphtho[2',1':4,5]indeno[1,2-d][1,3]dioxol-4-one] | > 50000 nM | > 50000 nM | 1.12 nM | 8.95 | > 4.5×10^4 | > 4.5×10^4 | 
